{"source": "patent US20080226653A1", "about": "“Inhibition of Platelet Aggregation” (THE UNIVERSITY OF MANITOBA, priority 2006, published 2008)", "origin": "cited, not measured here", "conditions": "clinical trials (Patrono et al., 1993)"}
{"smiles": "CC(=O)Oc1ccccc1C(=O)O", "note": "[aspirin, Aspirin]", "values": [{"measurement": "efficacy in preventing chronic complications in diabetic patients", "result": "only limited efficacy"}]}
